What was measured:
Format in all cases: in vivo
[1] = test system: person with glioblastoma; assay: Working Example XI: patient with glioblastoma; details: oral capsule: 6 mg auranofin and 50 mg isosorbide dinitrate, or 6 mg auranofin and 150 mg/m^2 BCNU, or 2.5 mg auranofin and 2 gm L-BSO every 6 hours
Method: A person with glioblastoma is given orally a capsule containing 6 mg auranofin and 50 mg isosorbide dinitrate or 6 mg auranofin and 150 mg/m^2 BCNU or 2.5 mg auranofin and 2 gm L-BSO given every 6 hours. Regression in the cancer occurs.

[2] = test system: person with recurrent restenosis; assay: Working Example II: patient with recurrent restenosis given arsenic trioxide plus nitrate; details: combination: 0.15 mg/kg/day IV arsenic trioxide and either 60 mg isosorbide mononitrate per day or nitroglycerin patch 1-2 inches up to 4 times a day; after one month
Method: A person with recurrent restenosis is give 0.15 mg/kg/day IV arsenic trioxide and either 60 mg isosorbide mononitrate per day or nitroglycerin patch of 1-2 inches up to 4 times a day.

[3] = test system: person with pancreatic cancer; assay: Working Example X: patient with pancreatic cancer; details: combination: gene therapy for TrxIP and 10 gms sodium ascorbate by infusion per day
Excerpt: A person with pancreatic cancer is given gene therapy for TrxIP and by infusion per day 10 gms of sodium ascorbate. The cancer regresses.

[4] = test system: person with septic shock; assay: Working Example IX: patient with septic shock; details: combination: gene therapy for TrxIP and 15 mg/kg intravenous L-NMMA (2 mg/kg IV TID)
Method: A person with septic shock is given gene therapy for TrxIP and 15 mg/kg intravenous L-NMMA (2 mg/kg IV TID).

[5] = test system: person with Parkinson's disease; assay: Working Example III: patient with Parkinson's disease; details: combination: orally 300 mg N-acetylcysteine and 0.3 mg aptamer directed at Parkin by injection into spinal fluid, 30 days
Method: A person with Parkinson's disease is given orally 300 mg N-acetylcysteine and 0.3 mg dose by injection into spinal fluid (range may be 10 μg-2 mg of body weight) of aptamer directed at Parkin for 30 days. Movement improves.

[6] = test system: person with Alzheimer's; assay: Working Example IV: patient with Alzheimer's; details: combination: NAC 300 mg/day, ascorbate 1 gm/day and minocycline 100 mg TID
Method: A person with Alzheimer's is then started on combination of NAC (300 mg/day), ascorbate 1 gm/day and minocycline 100 mg TID and memory improves.

[7] = test system: person with rhematoid arthritis; assay: Working Example VII: patient with rheumatoid arthritis; details: combination: deprenyl 10 mg plus ascorbate 1 gm plus ISDN 5 mg PO TID or plus cysteine or NaHS (final concentration in blood 10 μM-1 mM)
Method: A person with rhematoid arthritis is administered deprenyl 10 mg plus ascorbate 1 gm plus ISDN 5 mg PO TID or plus cysteine or NaHS (final concentration in blood of 10 μM-1 mM). Progression of the disease slows.

[8] = test system: 65 year with Alzheimers; assay: Working Example VI: patient with Alzheimers; details: combination: deprenyl 15 mg and S-nitrosoglutathione 10 mg po TID
Method: A 65 year with Alzheimers is administered deprenyl 15 mg and S-nitrosoglutathione 10 mg po TID. Blood pressure is unaltered but memory improves.

[9] = test system: person with large cell lymphoma disease; assay: Working Example I: patient with large cell lymphoma given auranofin plus isosorbide dinitrate; details: combination: 6 mg auranofin and 50 mg isosorbide dinitrate by mouth once a day for a month; patient not responding to treatment
Method: A person with large cell lymphoma disease who was not responding to treatment was given by mouth 6 mg auranofin and 50 mg isosorbide dinitrate once a day for a month. Tumor burden decreases as determined by CAT scan.

[10] = test system: person with central core disease, malignant hyperthermia (MH); assay: Working Example VIII: patient with central core disease and malignant hyperthermia; details: combination: deprenyl 10 mg and ISDN 5 mg po tid
Method: A person with central core disease undergoes operation for pancreatic cancer and course complicated by malignant hyperthermia (MH). The patient is administered deprenyl 10 mg and ISDN 5 mg po tid with acute relief of MH and improvement in muscle function over time.

[11] = test system: with muscular dystrophy; assay: Working Example V: patient with muscular dystrophy; details: combination: deprenyl 10 mg/day plus isosorbide dinitrate (ISDN) 10 mg/day
Method: A person with muscular dystrophy is given deprenyl 10 mg/day plus isosorbide dinitrate (ISDN) 10 mg/day and weakness improves.

Question: For `O=NN(CCCl)C(=O)NCCCl` [BCNU, carmustine], which “Regression in the cancer” value [1] is on record?
Answer: Its value is “Regression”.

Question: How did the “disease (restenosis)” value [2] turn out when `O=[N+]([O-])OCC(CO[N+](=O)[O-])O[N+](=O)[O-]` [nitroglycerin] was run?
Answer: Its value is “abates”.

Question: And the “incidence of thrombotic complication” value [2]?
Answer: Its value is “disappears”.

Question: And the restenosis recurrence [2]?
Answer: Its restenosis recurrence is “does not reoccur”.

Question: Which cancer regression [3] does the source give for `O=C1O[C@H]([C@@H](O)CO)C([O-])=C1O.[Na+]` [sodium ascorbate] here?
Answer: The cancer regression was “regresses”.

Question: With `CC(=O)O.CNC(=N)NCCC[C@H](N)C(=O)O` [L-NMMA, Ng-monomethyl-L-arginine, monoacetate salt] as the molecule, how does the Blood pressure [4] read?
Answer: The Blood pressure was “increases and stabilizes”.

Question: How did the Movement [5] turn out when `CC(=O)N[C@@H](CS)C(=O)O` [N-acetylcysteine] was run?
Answer: Its Movement is “improves”.

Question: And the memory [6]?
Answer: Its memory is “improves”.

Question: Which “disease (restenosis)” value [2] does the source give for arsenic trioxide here?
Answer: The value was “abates”.

Question: What about the “incidence of thrombotic complication” value [2] of the same molecule?
Answer: The value was “disappears”.

Question: And the restenosis recurrence [2]?
Answer: Its restenosis recurrence is “does not reoccur”.

Question: `[Na+].[SH-]` [NaHS] was tested. Which “Progression of the disease” value [7] did it give?
Answer: The value was “slows”.

Question: `N[C@@H](CCC(=O)N[C@@H](CSN=O)C(=O)NCC(=O)O)C(=O)O` [S-nitrosoglutathione] was tested. Which memory [8] did it give?
Answer: Its memory is “improves”.

Question: For `N[C@@H](CS)C(=O)O` [cysteine], which “Progression of the disease” value [7] is on record?
Answer: Its value is “slows”.

Question: For `O=[N+]([O-])O[C@@H]1CO[C@H]2[C@@H]1OC[C@@H]2O` [isosorbide mononitrate], which “disease (restenosis)” value [2] is on record?
Answer: Its value is “abates”.

Question: What about the “incidence of thrombotic complication” value [2] of the same molecule?
Answer: Its value is “disappears”.

Question: And the restenosis recurrence [2]?
Answer: Its restenosis recurrence is “does not reoccur”.

Question: For `O=[N+]([O-])O[C@H]1CO[C@H]2[C@@H]1OC[C@H]2O[N+](=O)[O-]` [isosorbide dinitrate], which “Tumor burden as determined by CAT scan” value [9] is on record?
Answer: Its value is “decreases”.

Question: What about the “Regression in the cancer” value [1] of the same molecule?
Answer: Its value is “Regression”.

Question: What about the “muscle function over time” value [10] of the same molecule?
Answer: Its value is “improvement”.

Question: And the “relief of MH (malignant hyperthermia)” value [10]?
Answer: Its value is “acute relief”.

Question: And the “Progression of the disease” value [7]?
Answer: The value was “slows”.

Question: And the weakness [11]?
Answer: Its weakness is “improves”.

Question: `CCCCS(=N)(=O)CCC(N)C(=O)O` [L-BSO, L-buthionine-SR-sulfoximine] was tested. Which “Regression in the cancer” value [1] did it give?
Answer: Its value is “Regression”.

Question: For `C#CCN(C)[C@H](C)Cc1ccccc1` [deprenyl], which “muscle function over time” value [10] is on record?
Answer: Its value is “improvement”.

Question: And the “relief of MH (malignant hyperthermia)” value [10]?
Answer: The value was “acute relief”.

Question: And the “Progression of the disease” value [7]?
Answer: Its value is “slows”.

Question: And the weakness [11]?
Answer: The weakness was “improves”.

Question: What about the Blood pressure [8] of the same molecule?
Answer: Its Blood pressure is “unaltered”.

Question: What about the memory [8] of the same molecule?
Answer: The memory was “improves”.

Question: With `CC(=O)OC[C@H]1O[C@@H]([S-])[C@H](OC(C)=O)[C@@H](OC(C)=O)[C@@H]1OC(C)=O.CCP(CC)CC.[Au+]` [auranofin] as the molecule, how does the “Tumor burden as determined by CAT scan” value [9] read?
Answer: The value was “decreases”.

Question: What about the “Regression in the cancer” value [1] of the same molecule?
Answer: The value was “Regression”.

Source: US20160106773A1, “TREATMENT FOR DISEASES RELYING ON DISCOVERY THAT THIOREDOXIN MEDIATES NITRIC OXIDE RELEASE IN CELLS” (Duke University, priority 2008, published 2016)
